# US10376520B2, “Methods for the treatment of cardiovascular disorders” (Galapagos NV, priority 2015, dated 2019)
# Tested on: RA patients
# Assay: Total cholesterol determination, Study 2 (RA patients, monotherapy with Compound 1)
# Format: in vivo, human
# Text: Randomized, double-blind, placebo-controlled, multicenter, phase IIb dose finding study of Compound 1 (dosed as a [Compound 1:HCl:3H2O]) administered for 24 weeks as monotherapy to subjects with moderately to severely active rheumatoid arthritis who have an inadequate response to methotrexate alone
# Double-blind, placebo-controlled, monotherapy study in subjects with moderately to severely active RA who have an inadequate response to methotrexate (MTX) (oral or parenteral).
# 280 subjects randomized to one of 3 doses of Compound 1 (dosed as a [Compound 1:HCl:3H2O]) or to placebo, given once daily (q.d.).
# Twelve weeks of treatment with Compound 1 (dosed as a [Compound 1:HCl:3H2O]) at 50 mg, 100 mg, or 200 mg q.d.; or placebo. At Week 12, all subjects on placebo and the subjects on the 50 mg dose who have not achieved 20% improvement in swollen joint count (SJC66) and tender joint count (TJC68) will be assigned to 100 mg q.d. in a blinded fashion and will continue treatment until Week 24. Subjects in the other groups will maintain their randomized treatment until Week 24.
# This method is based on the determination of Δ^4 cholestenone after enzymatic cleavage of the cholesterol ester by cholesterol esterase, conversion of cholesterol by cholesterol oxidase, and subsequent measurement by the Trinder reaction of the hydrogen peroxide formed (Allain et al., 1974).
# Cholesterol esters are cleaved by the action of cholesterol esterase to yield free cholesterol and fatty acids. Cholesterol oxidase then catalyzes the oxidation of cholesterol to cholest-4-en-3-one and hydrogen peroxide. In the presence of peroxidase, the hydrogen peroxide formed effects the oxidative coupling of phenol and 4-aminophenazone to form a red quinone-imine dye. The color intensity of the dye formed is directly proportional to the cholesterol concentration. It is determined by measuring the increase in absorbance.
# Human serum and plasma samples cholesterol determination was done on a Roche/Hitachi Cobas c 701/702 system which automatically calculate the analyte concentration of each sample.
# [1] = placebo switching to 100 mg q.d. at week 12, week 16
# [2] = placebo switching to 100 mg q.d. at week 12, week 20
# [3] = placebo switching to 100 mg q.d. at week 12, week 24
compound,measurement,setting,value
"O=C(Nc1nc2cccc(-c3ccc(CN4CCS(=O)(=O)CC4)cc3)n2n1)C1CC1 [Compound 1, cyclopropanecarboxylic acid {5-[4-(1,1-dioxo-thiomorpholin-4-ylmethyl)-phenyl]-[1,2,4]triazolo[1,5-a]pyridin-2yl}-amide]",[total cholesterol] Mean percentage CFB - 24 weeks results,"200 mg q.d., week 4",9.35%
same,[total cholesterol] Median percentage CFB - 24 weeks results,"200 mg q.d., week 4",7.39%
same,[total cholesterol] Mean percentage CFB - 12 weeks results,"200 mg q.d., week 8",9.62%
same,[total cholesterol] Mean percentage CFB - 24 weeks results,"200 mg q.d., week 8",9.62%
same,[total cholesterol] Median percentage CFB - 24 weeks results,"200 mg q.d., week 8",9.01%
same,[total cholesterol] Mean percentage CFB - 12 weeks results,"200 mg q.d., week 12",13.12%
same,[total cholesterol] Mean percentage CFB - 24 weeks results,"200 mg q.d., week 12",13.12%
same,[total cholesterol] Median percentage CFB - 24 weeks results,"200 mg q.d., week 12",11.96%
same,[total cholesterol] Mean percentage CFB - 24 weeks results,"200 mg q.d., week 16",11.40%
same,[total cholesterol] Median percentage CFB - 24 weeks results,"200 mg q.d., week 16",8.36%
same,[total cholesterol] Mean percentage CFB - 24 weeks results,"200 mg q.d., week 20",11.67%
same,[total cholesterol] Median percentage CFB - 24 weeks results,"200 mg q.d., week 20",11.04%
same,[total cholesterol] Mean percentage CFB - 24 weeks results,"200 mg q.d., week 24",12.83%
same,[total cholesterol] Median percentage CFB - 24 weeks results,"200 mg q.d., week 24",9.81%
same,[Total cholesterol] Median CFB,"Study 2 12 weeks results, 50 mg q.d., week 1",0.100 mmol/L
same,[Total cholesterol] Median CFB,"Study 2 12 weeks results, 50 mg q.d., week 2",0.000 mmol/L
same,[Total cholesterol] Median CFB,"Study 2 12 weeks results, 50 mg q.d., week 4",0.000 mmol/L
same,[Total cholesterol] Median CFB,"Study 2 12 weeks results, 50 mg q.d., week 8",0.250 mmol/L
same,[Total cholesterol] Median CFB,"Study 2 12 weeks results, 50 mg q.d., week 12",0.140 mmol/L
same,[Total cholesterol] Median CFB,"Study 2 12 weeks results, 100 mg q.d., week 1",0.100 mmol/L
same,[Total cholesterol] Median CFB,"Study 2 12 weeks results, 100 mg q.d., week 2",0.140 mmol/L
same,[Total cholesterol] Median CFB,"Study 2 12 weeks results, 100 mg q.d., week 4",0.265 mmol/L
same,[Total cholesterol] Median CFB,"Study 2 12 weeks results, 100 mg q.d., week 8",0.250 mmol/L
same,[Total cholesterol] Median CFB,"Study 2 12 weeks results, 100 mg q.d., week 12",0.350 mmol/L
same,[Total cholesterol] Median CFB,"Study 2 12 weeks results, 200 mg q.d., week 1",0.260 mmol/L
same,[Total cholesterol] Median CFB,"Study 2 12 weeks results, 200 mg q.d., week 2",0.330 mmol/L
same,[Total cholesterol] Median CFB,"Study 2 12 weeks results, 200 mg q.d., week 4",0.390 mmol/L
same,[Total cholesterol] Median CFB,"Study 2 12 weeks results, 200 mg q.d., week 8",0.400 mmol/L
same,[Total cholesterol] Median CFB,"Study 2 12 weeks results, 200 mg q.d., week 12",0.560 mmol/L
same,[Total cholesterol] Median CFB,"Study 2 24 weeks results, 50 mg q.d. non responders switching to 100 mg q.d. at week 12, week 1",0.150 mmol/L
same,[Total cholesterol] Median CFB,"Study 2 24 weeks results, 50 mg q.d. non responders switching to 100 mg q.d. at week 12, week 2",0.100 mmol/L
same,[Total cholesterol] Median CFB,"Study 2 24 weeks results, 50 mg q.d. non responders switching to 100 mg q.d. at week 12, week 4",0.350 mmol/L
same,[Total cholesterol] Median CFB,"Study 2 24 weeks results, 50 mg q.d. non responders switching to 100 mg q.d. at week 12, week 8",0.140 mmol/L
same,[Total cholesterol] Median CFB,"Study 2 24 weeks results, 50 mg q.d. non responders switching to 100 mg q.d. at week 12, week 12",0.330 mmol/L
same,[Total cholesterol] Median CFB,"Study 2 24 weeks results, 50 mg q.d. non responders switching to 100 mg q.d. at week 12, week 16",0.540 mmol/L
same,[Total cholesterol] Median CFB,"Study 2 24 weeks results, 50 mg q.d. non responders switching to 100 mg q.d. at week 12, week 20",0.280 mmol/L
same,[Total cholesterol] Median CFB,"Study 2 24 weeks results, 50 mg q.d. non responders switching to 100 mg q.d. at week 12, week 24",0.550 mmol/L
same,[Total cholesterol] Median CFB,"Study 2 24 weeks results, 50 mg q.d. responders, week 1",0.020 mmol/L
same,[Total cholesterol] Median CFB,"Study 2 24 weeks results, 50 mg q.d. responders, week 2",-0.040 mmol/L
same,[Total cholesterol] Median CFB,"Study 2 24 weeks results, 50 mg q.d. responders, week 4",-0.030 mmol/L
same,[Total cholesterol] Median CFB,"Study 2 24 weeks results, 50 mg q.d. responders, week 8",0.350 mmol/L
same,[Total cholesterol] Median CFB,"Study 2 24 weeks results, 50 mg q.d. responders, week 12",0.060 mmol/L
same,[Total cholesterol] Median CFB,"Study 2 24 weeks results, 50 mg q.d. responders, week 16",0.165 mmol/L
same,[Total cholesterol] Median CFB,"Study 2 24 weeks results, 50 mg q.d. responders, week 20",0.215 mmol/L
same,[Total cholesterol] Median CFB,"Study 2 24 weeks results, 50 mg q.d. responders, week 24",0.250 mmol/L
same,[Total cholesterol] Median CFB,"Study 2 24 weeks results, 100 mg q.d., week 1",0.100 mmol/L
same,[Total cholesterol] Median CFB,"Study 2 24 weeks results, 100 mg q.d., week 2",0.140 mmol/L
same,[Total cholesterol] Median CFB,"Study 2 24 weeks results, 100 mg q.d., week 4",0.265 mmol/L
same,[Total cholesterol] Median CFB,"Study 2 24 weeks results, 100 mg q.d., week 8",0.250 mmol/L
same,[Total cholesterol] Median CFB,"Study 2 24 weeks results, 100 mg q.d., week 12",0.350 mmol/L
same,[Total cholesterol] Median CFB,"Study 2 24 weeks results, 100 mg q.d., week 16",0.400 mmol/L
same,[Total cholesterol] Median CFB,"Study 2 24 weeks results, 100 mg q.d., week 20",0.400 mmol/L
same,[Total cholesterol] Median CFB,"Study 2 24 weeks results, 100 mg q.d., week 24",0.445 mmol/L
same,[Total cholesterol] Median CFB,"Study 2 24 weeks results, 200 mg q.d., week 1",0.260 mmol/L
same,[Total cholesterol] Median CFB,"Study 2 24 weeks results, 200 mg q.d., week 2",0.330 mmol/L
same,[Total cholesterol] Median CFB,"Study 2 24 weeks results, 200 mg q.d., week 4",0.390 mmol/L
same,[Total cholesterol] Median CFB,"Study 2 24 weeks results, 200 mg q.d., week 8",0.400 mmol/L
same,[Total cholesterol] Median CFB,"Study 2 24 weeks results, 200 mg q.d., week 12",0.560 mmol/L
same,[Total cholesterol] Median CFB,"Study 2 24 weeks results, 200 mg q.d., week 16",0.410 mmol/L
same,[Total cholesterol] Median CFB,"Study 2 24 weeks results, 200 mg q.d., week 20",0.490 mmol/L
same,[Total cholesterol] Median CFB,"Study 2 24 weeks results, 200 mg q.d., week 24",0.565 mmol/L
same,[Total cholesterol] Median CFB,"Study 2 24 weeks results, placebo switching to 100 mg q.d. at week 12, week 16",0.200 mmol/L
same,[Total cholesterol] Median CFB,"Study 2 24 weeks results, placebo switching to 100 mg q.d. at week 12, week 20",0.220 mmol/L
same,[Total cholesterol] Median CFB,"Study 2 24 weeks results, placebo switching to 100 mg q.d. at week 12, week 24",0.300 mmol/L
same,[total cholesterol] Mean percentage CFB - 24 weeks results,[1],5.14%
same,[total cholesterol] Median percentage CFB - 24 weeks results,[1],3.87%
same,[total cholesterol] Mean percentage CFB - 24 weeks results,[2],7.27%
same,[total cholesterol] Median percentage CFB - 24 weeks results,[2],5.09%
same,[total cholesterol] Mean percentage CFB - 24 weeks results,[3],6.98%
same,[total cholesterol] Median percentage CFB - 24 weeks results,[3],5.57%
